Results: patent US6911470B1, “Polyoxometalate compounds as antiviral agents” (priority 1988, dated 2005)
“And” between values parts separate entries of the source, which are not always exact repeats. Equal entries are not always repeated. Where two headings read alike, the source gives them in different places.

How the values were obtained:
Vero cells = experiment: Cytotoxicity assay in Vero cells; assay type: cell-based; conditions: Table 2; >100 μM = Nontoxic; read-out: IC50 Toxicity Vero Cells
Text: Cell culture assays for heroes simplex viruses. Mycoplasma-free Vero cells, obtained from Flow Laboratory (McLean, Va.), were used for the plaque assays. The methodologies for the plaque reduction and cytotoxicity assays have been previously described (Schinazi et al, Antimicrob. Agents Chemother. 22, 499-507, 1982).

human PBM cells = experiment: Cytotoxicity assay on uninfected PHA stimulated human PBMC (trypan blue); assay type: cell-based
Experimental: Cells. […] PBS), and pelleted at 300×g for 10 minutes. […] Cytotoxicity assay. The drugs were evaluated for their potential toxic effects on uninfected PHA stimulated human PBMC. Flasks were seeded so that the final cell concentration was 2×10^5 cells/ml. The cells were cultured with and without drug for 6 days, at which time aliquots were counted for cell viability, as assessed by the trypan blue dye-exclusion method using a hemacytometer. The median inhibitory concentration (IC50) was calculated using the median effect method (Chou et al, Elsevier-Biosoft, Elsevier Science Publishers, Cambridge, U.K., 1985; Chou et al, Adv. Enz. Regul. 22, 27-55, 1984). Median-effect method. Dose-effect relationships were analyzed by the median-effect equation (Chou et al, Adv. Enz. Regul. 22, 27-55, 1984). The slope (m) and median effective and inhibitory concentration (EC50 and IC50) values were obtained by using a computer program developed by Chou and Chou (Chou et al, Elsevier-Biosoft, Elsevier Science Publishers, Cambridge, U.K., 1985).

HSV-2 = experiment: Plaque reduction assay for herpes simplex viruses in Vero cells; assay type: cell-based, herpes simplex virus type 2; conditions: Table 2; read-out: EC-50 HSV-2
Experimental: (§1) Cell culture assays for heroes simplex viruses. Mycoplasma-free Vero cells, obtained from Flow Laboratory (McLean, Va.), were used for the plaque assays. The methodologies for the plaque reduction and cytotoxicity assays have been previously described (Schinazi et al, Antimicrob. Agents Chemother. 22, 499-507, 1982). Median-effect method. Dose-effect relationships were analyzed by the median-effect equation (Chou et al, Adv. Enz. Regul. 22, 27-55, 1984). The slope (m) and median effective and inhibitory concentration (EC50 and IC50) values were obtained by using a computer program developed by Chou and Chou (Chou et al, Elsevier-Biosoft, Elsevier Science Publishers, Cambridge, U.K., 1985).

[1] = Comparison of toxicity of polyoxometalate compounds in mice (mortality, haematology); assay type: in vivo; conditions: BID × 6, 60 mkd i.p.; for Mortality: dead/total
Text: Comparison of Toxicity of Polyoxometalate Compounds Mice.
In vivo antiviral experiments. […] Treatment was continued daily for 6 or 10 days.

[2] = biological target: T1, HIV-1 reverse transcriptase (Human immunodeficiency virus type 1 group M subtype B, UniProt P04585); experiment: Evaluation of compounds on purified retroviral RT (cell-free, virion-derived); assay type: biochemical; conditions: Table 2; read-out: EC-50 Cell-Free RT (virion-derived)
T1 construct: HIV-1 RT was isolated from detergent disrupted virions; made in house; host or cells: virions pelleted from culture fluid of HIV-1-infected PHA-stimulated human PBMC; DEAE-cellulose and phosphocellulose chromatography
Experimental: Evaluation of compounds on purified retroviral RT. HIV-1 RT was isolated from detergent disrupted virions obtained from the cell-free supernatant of infected PHA-stimulated PBMC. The enzyme was purified by passing the extract through ion-exchange chromatography columns, as described previously (Eriksson et al, Antimicrob. Agents Chemother. 31, 600-604, 1977. Briefly, 750 ml of culture fluid harvested from HIV-1-infected PBMC were ultracentrifuged to pellet the virus. The pellet was dissolved in buffer A [50 mM Tris-HCl, pH 7.9/0.25% Nonidet P-40/5 mM dithiothreitol/20% (vol/vol) glycerol] containing 1 mM EDTA, and freeze-thawed four times. After clarification by centrifugation, the enzyme was partially purified from the supernatant by passing the extract through a DEAE-cellulose column (Whatman DE-52; 2.6×15 cm) previously equilibrated with buffer B (50 mM Tris-Cl, pH 7.9, 50 mM KCl, 1 mM EDTA, 1 mM dithiothreitol, 20% glycerol). Elution was performed using a linear gradient 50-500 mM KCl in buffer B. Fractions containing enzyme activity were dialyzed against buffer B and were further purified on a phosphocellulose column (Whatman P-11) using a linear KCl (50-500 mM) gradient in buffer B. The peak fractions were pooled and dialyzed against buffer B. The enzyme was characterized as HIV-1 reverse transcriptase based on its cation, salt, pH, and template requirements according to previous descriptions (Eriksson et al, Antimicrob. Agents Chemother. 31, 600-604, 1977). The standard reaction mixture was used to evaluate the inhibitory effect of the drugs, as previously described (Eriksson et al, Antimicrob. Agents Chemother. 31, 600-604, 1977). Briefly, the reaction mixtures (final volume 100 μl) contained 100 mM Tris-HCl, pH 8.0, 50 mM KCl, 2 mM MgCl2, 5 mM DTT, 400 ug/ml bovine serum albumin, 3 μg/ml (rA)·(dT)12-18 and 1 μM of [^3H]TTP (specific activity 82.3 Ci/mmol). The reactions were started by the addition of 10 μl of partially purified RT, incubated at 37° C. for 60 min., and processed as previously described (Eriksson et al, Antimicrob. Agents Chemother. 31, 600-604, 1977).
Median-effect method. Dose-effect relationships were analyzed by the median-effect equation (Chou et al, Adv. Enz. Regul. 22, 27-55, 1984). The slope (m) and median effective and inhibitory concentration (EC50 and IC50) values were obtained by using a computer program developed by Chou and Chou (Chou et al, Elsevier-Biosoft, Elsevier Science Publishers, Cambridge, U.K., 1985).

HSV-1 = experiment: Plaque reduction assay for herpes simplex viruses in Vero cells; assay type: cell-based, herpes simplex virus type 1; conditions: Table 2; read-out: EC-50 HSV-1
Experimental: as §1

Friend, Spleen (EY-10) = experiment: UV/XC assay for murine retroviruses in SC-1 cells; assay type: cell-based, murine retrovirus; conditions: Table 2; read-out: EC-50 Friend, Spleen (EY-10)
Experimental: UV/XC Assay for Murine Retroviruses Cells. Mouse embryo fibroblasts (SC-1) and XC cells were obtained from the American Type Culture Collection, Rockville, Md. The XC cell line was derived from a transplantable tumor induced in newborn White-Weston rats by the intramuscular injection of the Prague strain of Rous sarcoma virus. […] The cells were maintained in Eagle's minimum essential medium with Hanks balanced salt solution, supplemented with penicillin (100 U/ml), streptomycin (100 μg/ml), sodium bicarbonate (24 mM), Hepes (25 mM), and either 2 (maintenance) or 10 (growth) percent inactivated newborn or fetal calf serum.
Virus quantitation by UV-XC assay. The XC test (Rowe et al, Virology 42, 1136-1139, 1970) is a plaque-type of assay which tests for the presence and titer of B- and N-tropic murine leukemia viruses. Because these viruses produce no overt signs of infection of SC-1 mouse cells, it is necessary to overlay the virus producing culture with an indicator cell line, XC. The number of syncytia that are produced is a direct measure of the virus titer in FFU.
Six-well plates were seeded with 1×10^5 SC-1 mouse cells on the first day. On the following day the medium was removed and the inoculum (0.2 ml) was added in medium containing polybrene (4 μg/ml). For determining the antiviral activity of the compounds in culture, the virus dilution selected produced in untreated cultures about 80 foci per well. After 1 hour, the virus was removed and various concentrations of the drug were added. The plates were replenished with medium on the third and fifth days. The medium was removed on the eighth day and the cells exposed to UV irradiation (60 erg/mm^2 per sec) for 30 seconds. Medium containing 10^6 XC cells was then added to each plate. On the eleventh day, the plates were fixed with 10% buffered Formalin and stained with crystal violet. Comparison of the number of foci to those found in virus-infected cells receiving no drug allowed determination of whether a drug at a particular concentration was effective. Control cells without virus but receiving the drug provided an estimate of the drug's toxic effects as quantitated by using trypan blue staining.

HIV-1 (strain LAV-1) = experiment: microbe, parasite or virus in culture; assay type: cell-based
Experimental: Cells. Human peripheral blood mononuclear cells (PBMC) from healthy HIV-1 seronegative and hepatitis B virus seronegative donors were isolated by Ficoll-Hypaque discontinuous gradient centrifugation at 1,000×g for 30 minutes, washed twice in phosphate-buffered saline (pH 7.2; PBS), and pelleted at 300×g for 10 minutes. Before infection, the cells were stimulated by phytohemagglutinin (PHA) at a concentration of 6 μg/ml for three days in RPMI 1640 medium supplemented with 15% heat-inactivated fetal calf serum, 1.5 mM L-glutamine, penicillin (100 U/ml), streptomycin (100 μg/ml), and 4mM sodium bicarbonate buffer.
Viruses. HIV-1 (strain LAV-1) was obtained from Dr. P. Feorino (Centers for Disease Control, Atlanta, Ga.). The virus was propagated in human PBMC using RPMI 1640 medium, as described previously (McDougal et al, J. Immun. Meth. 76, 171-183, 1985) without PHA and supplemented with 7% v/v interleukin-2 (Advanced Biotechnologies, Silver Spring, Md.), 7 μg/ml DEAE-dextran (Pharmacia, Uppsala, Sweden), and 370 U/ml anti-human leucocyte (alpha) interferon (ICN, Lisle, Ill.). Virus obtained from cell-free culture supernatant was titrated and stored in aliquots at −80° C. until use.
Inhibition of virus replication in human PBMC. Uninfected PHA-stimulated human PBMC were uniformly distributed among 25 cm^2 flasks to give a 5 ml suspension containing about 2×10^6 cells/ml. Suitable dilutions of virus were added to infect the cultures. The mean reverse transcriptase (RT) activity of the inocula was 50,000 decompositions per min/ml corresponding to about 100 TCID50, as determined by Groopman et al. (Groopman et al, AIDS Res. Human Retro. 3, 71-85, 1987. The drugs at twice their final concentrations in 5 ml of RPMI 1640 medium, supplemented as described above, were added to the cultures. Uninfected and untreated PBMC at equivalent cell densities were grown in parallel as controls. The cultures were maintained in a humidified 5% CO2-95% air incubator at 37° C. for six days after infection, at which point all cultures were sampled for supernatant reverse transcriptase (RT) activity.
RT activity assay. Six ml supernatant from each culture was clarified from cells at 300×g for 10 minutes. Virus particles were pelleted from 5 ml samples at 40,000 rpm for 30 minutes using a Beckman 70.1 Ti rotor and suspended in 200 μl of virus disrupting buffer (50 mM Tris-Cl, pH 7.8, 800 mM NaCl, 20% glycerol, 0.5 mM phenylmethyl sulfonyl fluoride, and 0.5% Triton X-100).
The RT assay was performed in 96-well microtiter plates, as described by Spira et al. (Spira et al, J. Clin. Microbiol. 22, 97-99, 1987). The reaction mixture, which contained 50 mM Tris-Cl pH 7.8, 9 mM MgCl2, 5 mM dithiothreitol (DTT), 4.7 μg/ml (rA)n. (dT)12-18, 140 μM dATP, and 0.22 μM [^3H]TTP, specific activity 78.0 Ci/mmol, equivalent to 17,300 cpm/pmol; NEN Research Products, Boston, Mass., was added to each well. The sample (20 μl) was added to the reaction mixture which was then incubated at 37° C. for 2 hours. The reaction was terminated by the addition of 100 μl 10% trichloroacetic acid (TCA) containing 0.45 mM sodium pyrophosphate. The acid-insoluble nucleic acids which precipitated were collected on glass filters using a Skatron semi-automatic harvester. The filters were washed with 5% TCA and 70% ethanol, dried, and placed in scintillation vials. Four ml of scintillation fluid (Econofluor, NEN Research Products, Boston, Mass.) were added and the amount of radioactivity in each sample was determined using a Packard Tri-Carb liquid scintillation analyzer (model 2,000CA). The results were expressed in dpm/ml of original clarified supernatant.
Median-effect method. Dose-effect relationships were analyzed by the median-effect equation (Chou et al, Adv. Enz. Regul. 22, 27-55, 1984).

[3] = Table 2, >100 μM = Nontoxic, read-out: IC50 Toxicity PBM Cells
[4] = Table 1, read-out: IC50 Toxicity in Human PBM Cells
[5] = Table 1, read-out: EC50 Anti-HIV-1 Activity in Human PBM Cells

Row | Substance | IC50 (human PBM cells; [4]) [µM] | EC50 (HIV-1 (strain LAV-1); [5]) [µM] | other results
1 | (ArgH^+)n(H^+)5-nBT, where n=1-5 [(ARGH^+)nH^+(5−n)BT] |  |  | IC50 (Vero cells): > 100 µM; IC50 (human PBM cells; [3]): 328 µM; EC50 (HSV-2): 3.16 µM; MDD ± St. Dev. (Mean day of death) [1]: 8.8 ± 0.45; Mortality [1]: 5/5 (100); EC50 [2]: 25.4 µM; EC50 (HSV-1): 1.35 µM
2 | (HisH^+)p(H^+)4-pST, where p=1-4 [(HISH^+)nH^+(4−n)ST] |  |  | IC50 (Vero cells): > 100 µM; IC50 (human PBM cells; [3]): 182 µM; EC50 (HSV-2): 0.87 µM; EC50 (Friend, Spleen (EY-10)): 0.92 µM; EC50 [2]: 22.3 µM; EC50 (HSV-1): 0.95 µM
3 | (NH4)5[BW12O40] [(NH4)5BT] |  |  | IC50 (Vero cells): > 100 µM; EC50 (HSV-2): > 10 µM; EC50 (HIV-1 (strain LAV-1); Table 2, several values per cell, some in brackets, read-out: EC-50 HIV-1 (LAV-1)): 6.69 µM and 11.6 µM; MDD ± St. Dev. (Mean day of death) [1]: 4.6 ± 0.89; Mortality [1]: 5/5 (100); EC50 [2]: 68.1 µM; EC50 (HSV-1): > 10 µM
4 | (NH4)14[NaP5W30O110] [Formula 17] | 7.7 | 0.32 | 
5 | (n-Bu4N)2Mo6O19 [Formula 16] | > 100 | > 100 | 
6 | (n-Bu4N)2W6O19 [Formula 15] | > 100 |  | 
7 | H6ZnW12O40 [Formula 5] | 12 | 0.9 | 
8 | K4W4O10(O2)6 [Formula 21] | > 100 | > 50 | 
9 | K8SiW11O39 [Formula 9] | > 100 | 0.15 | 
10 | K10Co4(H2O)2(PW9O34)2 [Formula 12] | 44 | 0.8 | 
11 | K10Cu4(H2O)2(PW9O34)2 [Formula 11] | > 100 | 4.4 | 
12 | Na6H2W12O40 [Formula 6] | > 100 | 0.34 | 
13 | Na7PW11O39 [Formula 8] | > 100 | 10.8 | 
14 | Na9HSiW9O34 [Formula 10] | > 100 | 2.4 | 
15 | [(DMA)2H]3PMo12O40 [Formula 7] | > 100 | > 100 | 
16 | α-(n-Bu4N)4Mo8O26 [Formula 20] | > 100 | 55.3 | 
